In patent US7317013B2 (priority 2003, dated 2008):
Where a name gives a salt, the structure may show the parent alone.

test system: not given; experiment: not given; settings: not given

SMILES | melting point [°C]
N=C(NCCCCC1CCN(CC(O)CO)CC1)NC(=O)c1nc(Cl)c(N)nc1N (centres unmarked) | 188 to 191
N=C(NCCCCC1CCN(CCCO)CC1)NC(=O)c1nc(Cl)c(N)nc1N (as salt: hydrochloride) | 165 to 167
N=C(NCCCCC1CCN(CCN)CC1)NC(=O)c1nc(Cl)c(N)nc1N (as salt: hydrochloride) | > 200
N=C(NCCCCC1CCN(CCCN)CC1)NC(=O)c1nc(Cl)c(N)nc1N (as salt: hydrochloride) | 105 to 108
N=C(N)NCCCN1CCC(CCCCNC(=N)NC(=O)c2nc(Cl)c(N)nc2N)CC1 (as salt: hydrochloride) | 176 to 178

molecular target: T1, airway epithelial sodium currents (epithelial Na+ channel, ENaC) (Canis lupus familiaris, UniProt A0A8I3MKE6+A0A8I3Q679+Q95165); experiment: Sodium channel blocking activity: inhibition of short circuit current (ISC) in airway epithelial monolayers mounted in Ussing chambers; format: cell-based, canine; settings: lumenal drug addition, bronchial epithelia, mean ± spread (n in cell)
T1 sequence (A0A8I3Q679 1-649): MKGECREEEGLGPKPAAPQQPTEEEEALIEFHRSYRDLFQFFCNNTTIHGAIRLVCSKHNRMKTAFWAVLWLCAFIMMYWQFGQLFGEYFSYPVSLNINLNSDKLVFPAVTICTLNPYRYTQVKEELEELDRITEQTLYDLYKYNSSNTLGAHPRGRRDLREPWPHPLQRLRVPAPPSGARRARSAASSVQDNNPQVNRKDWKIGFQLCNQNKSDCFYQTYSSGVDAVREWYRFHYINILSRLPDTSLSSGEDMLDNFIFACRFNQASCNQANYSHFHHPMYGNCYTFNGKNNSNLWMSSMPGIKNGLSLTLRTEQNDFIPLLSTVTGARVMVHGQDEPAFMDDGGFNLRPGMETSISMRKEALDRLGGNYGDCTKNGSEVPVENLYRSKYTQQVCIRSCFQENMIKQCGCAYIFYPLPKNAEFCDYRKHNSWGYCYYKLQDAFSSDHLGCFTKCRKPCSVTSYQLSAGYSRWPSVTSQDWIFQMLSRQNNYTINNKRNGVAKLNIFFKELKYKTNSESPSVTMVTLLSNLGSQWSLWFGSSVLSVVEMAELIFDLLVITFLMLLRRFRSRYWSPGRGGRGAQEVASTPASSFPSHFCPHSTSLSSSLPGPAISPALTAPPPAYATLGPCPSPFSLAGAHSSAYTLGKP
T1 sequence (Q95165 1-641): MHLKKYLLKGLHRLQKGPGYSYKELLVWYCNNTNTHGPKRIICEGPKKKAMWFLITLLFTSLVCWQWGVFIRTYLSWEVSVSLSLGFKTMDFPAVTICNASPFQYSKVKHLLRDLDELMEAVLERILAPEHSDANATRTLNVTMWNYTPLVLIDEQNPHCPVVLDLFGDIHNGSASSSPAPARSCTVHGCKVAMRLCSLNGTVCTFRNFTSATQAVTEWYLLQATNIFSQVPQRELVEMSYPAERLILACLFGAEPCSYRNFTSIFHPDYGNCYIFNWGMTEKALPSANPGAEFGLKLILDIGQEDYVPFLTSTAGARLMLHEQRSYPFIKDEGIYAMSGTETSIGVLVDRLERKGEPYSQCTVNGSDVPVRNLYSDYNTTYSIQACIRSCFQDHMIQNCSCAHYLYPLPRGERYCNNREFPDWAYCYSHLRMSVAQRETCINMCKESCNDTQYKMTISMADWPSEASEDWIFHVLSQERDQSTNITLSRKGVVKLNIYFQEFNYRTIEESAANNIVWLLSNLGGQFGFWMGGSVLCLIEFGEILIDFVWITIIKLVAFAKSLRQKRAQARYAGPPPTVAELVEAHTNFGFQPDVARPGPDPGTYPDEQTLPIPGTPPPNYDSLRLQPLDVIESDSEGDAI
T1 sequence (A0A8I3MKE6 1-646): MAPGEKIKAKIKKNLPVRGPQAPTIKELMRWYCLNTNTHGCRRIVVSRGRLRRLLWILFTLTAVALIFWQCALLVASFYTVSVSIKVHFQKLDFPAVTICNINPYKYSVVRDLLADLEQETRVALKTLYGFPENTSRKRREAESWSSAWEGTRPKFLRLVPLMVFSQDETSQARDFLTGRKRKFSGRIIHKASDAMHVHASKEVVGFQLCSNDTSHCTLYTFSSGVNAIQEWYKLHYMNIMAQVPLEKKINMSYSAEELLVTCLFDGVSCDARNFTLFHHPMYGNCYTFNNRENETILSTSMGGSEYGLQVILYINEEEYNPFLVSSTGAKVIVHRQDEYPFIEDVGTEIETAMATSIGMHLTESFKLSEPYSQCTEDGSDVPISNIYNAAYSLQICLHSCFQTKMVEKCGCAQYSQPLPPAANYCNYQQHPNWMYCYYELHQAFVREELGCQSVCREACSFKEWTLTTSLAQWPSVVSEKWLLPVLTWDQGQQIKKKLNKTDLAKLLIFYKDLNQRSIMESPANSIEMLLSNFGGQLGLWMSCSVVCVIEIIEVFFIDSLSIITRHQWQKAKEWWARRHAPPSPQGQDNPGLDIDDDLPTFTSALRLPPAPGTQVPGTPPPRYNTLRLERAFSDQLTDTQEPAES
Protocol: One assay used to assess mechanism of action and/or potency of the compounds of the present invention involves the determination of lumenal drug inhibition of airway epithelial sodium currents measured under short circuit current (ISC) using airway epithelial monolayers mounted in Ussing chambers. Cells obtained from freshly excised human, dog, sheep or rodent airways are seeded onto porous 0.4 micron Snapwell™ Inserts (CoStar), cultured at air-liquid interface (ALI) conditions in hormonally defined media, and assayed for sodium transport activity (ISC) while bathed in Krebs Bicarbonate Ringer (KBR) in Using chambers. All test drug additions are to the lumenal bath with half-log dose addition protocols (from 1×10^−11 M to 3×10^−5 M), and the cumulative change in ISC (inhibition) recorded. All drugs are prepared in dimethyl sulfoxide as stock solutions at a concentration of 1×10^−2 M and stored at −20° C. Eight preparations are typically run in parallel; two preparations per run incorporate amiloride and/or benzamil as positive controls. After the maximal concentration (5×10^−5 M) is administered, the lumenal bath is exchanged three times with fresh drug-free KBR solution, and the resultant ISC measured after each wash for approximately 5 minutes in duration. Reversibility is defined as the percent return to the baseline value for sodium current after the third wash. All data from the voltage clamps are collected via a computer interface and analyzed off-line.
Dose-effect relationships for all compounds are considered and analyzed by the Prism 3.0 program. IC50 values, maximal effective concentrations, and reversibility are calculated and compared to amiloride and benzamil as positive controls.
Statistics: Data were analyzed using SYSTAT for Windows, version 5. Data were analyzed using a two-way repeated ANOVA (to assess overall effects), followed by a paried t-test to identify differences between specific pairs. Significance was accepted when P was less than or equal to 0.05. […] The compounds can be further tested tested for potency in canine bronchial epithelia using the in vitro assay described above. The results for the compounds of the present invention are reported as fold-enhancement values relative to amiloride.

SMILES | EC50 [nM]
Cl.Cl.Cl.N=C(N)NCCCN1CCC(CCCCNC(=N)NC(=O)c2nc(Cl)c(N)nc2N)CC1 [compound 25795] | 37 ± 5

same assay, conditions: relative potency for PSA 4022 = 100 using EC50 from PSA 4022 in same run

SMILES | Fold Amiloride** (PSA 4022 = 100)
N=C(NCCCCC1CCN(CCO)CC1)NC(=O)c1nc(Cl)c(N)nc1N [compound 25193] | 8 ± 3 (n = 6)
N=C(NCCCCC1CCN(CCCO)CC1)NC(=O)c1nc(Cl)c(N)nc1N [compound 25310] | 5 ± 2 (n = 8)
CC(C)(C)OC(=O)NCCCN1CCC(CCCCNC(=N)NC(=O)c2nc(Cl)c(N)nc2N)CC1 [compound 25452] | 8 ± 1 (n = 6)
N=C(NCCCCC1CCN(CCN)CC1)NC(=O)c1nc(Cl)c(N)nc1N [compound 25455] | 5 ± 1 (n = 7)
N=C(NCCCCC1CCN(CC(O)CO)CC1)NC(=O)c1nc(Cl)c(N)nc1N (centres unmarked) [compound 25456] | 6 ± 2 (n = 7)
N=C(NCCCCC1CCN(CCCN)CC1)NC(=O)c1nc(Cl)c(N)nc1N [compound 25510] | 3 ± 9 (n = 7)
CC(C)(C)OC(=O)N=C(NCCCN1CCC(CCCCNC(=N)NC(=O)c2nc(Cl)c(N)nc2N)CC1)NC(=O)OC(C)(C)C [compound 25569] | 41 ± 9 (n = 9)
Cl.Cl.Cl.N=C(N)NCCCN1CCC(CCCCNC(=N)NC(=O)c2nc(Cl)c(N)nc2N)CC1 [compound 25795] | 18 ± 7 (n = 4)
